Data from patent US7858635B2 (priority 2005, dated 2010).
Like-named read-outs stand apart in the source and are kept apart here.

Experiments:
M1 muscarinic receptor = biological target: T1, M1 muscarinic receptor (Homo sapiens, UniProt P11229); experiment: Functional mobilization of intracellular calcium (FLIPR, Fluo-3), M1-CHO cells; assay type: cell-based; details: for Emax: read-out: M1 Efficacy
T1 construct: expressed in transfected cells; host or cells: CHO cells (M1-CHO, under zeocin and G418 selection)
T1 sequence (P11229 1-460): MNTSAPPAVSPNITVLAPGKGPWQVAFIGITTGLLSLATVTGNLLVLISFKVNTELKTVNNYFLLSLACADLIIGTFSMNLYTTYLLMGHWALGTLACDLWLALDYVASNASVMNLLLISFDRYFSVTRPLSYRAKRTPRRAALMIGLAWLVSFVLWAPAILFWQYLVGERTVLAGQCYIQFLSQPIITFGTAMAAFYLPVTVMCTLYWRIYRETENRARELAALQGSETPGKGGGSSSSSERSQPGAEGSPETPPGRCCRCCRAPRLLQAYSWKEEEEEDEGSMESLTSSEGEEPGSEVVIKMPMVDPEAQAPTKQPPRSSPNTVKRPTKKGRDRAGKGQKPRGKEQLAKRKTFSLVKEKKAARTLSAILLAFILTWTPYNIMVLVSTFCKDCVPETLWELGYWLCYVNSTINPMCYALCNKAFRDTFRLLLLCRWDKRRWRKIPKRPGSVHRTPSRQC
Summary of the method: (§1)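 Fluo-3 read-out, ex 488/em 540 nm, 60 sec on FLIPR 3. For agonist mode, compound added directly; for inhibition, 15 min compound pre-incubation before carbachol at EC80 (added as a 3× solution), or co-application. Buffer pH 7.4 with 1 mM probenecid; DMSO 0.5%.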

M4 muscarinic receptor = biological target: T2, M4 muscarinic receptor (Homo sapiens, UniProt P08173); experiment: Functional mobilization of intracellular calcium (FLIPR, Fluo-3), M4-CHO cells; assay type: cell-based; details: for Emax: read-out: M4 Efficacy
T2 construct: expressed in transfected cells; host or cells: CHO cells (M4-CHO, under puromycin, zeocin and blasticidin selection)
T2 sequence (P08173 1-479): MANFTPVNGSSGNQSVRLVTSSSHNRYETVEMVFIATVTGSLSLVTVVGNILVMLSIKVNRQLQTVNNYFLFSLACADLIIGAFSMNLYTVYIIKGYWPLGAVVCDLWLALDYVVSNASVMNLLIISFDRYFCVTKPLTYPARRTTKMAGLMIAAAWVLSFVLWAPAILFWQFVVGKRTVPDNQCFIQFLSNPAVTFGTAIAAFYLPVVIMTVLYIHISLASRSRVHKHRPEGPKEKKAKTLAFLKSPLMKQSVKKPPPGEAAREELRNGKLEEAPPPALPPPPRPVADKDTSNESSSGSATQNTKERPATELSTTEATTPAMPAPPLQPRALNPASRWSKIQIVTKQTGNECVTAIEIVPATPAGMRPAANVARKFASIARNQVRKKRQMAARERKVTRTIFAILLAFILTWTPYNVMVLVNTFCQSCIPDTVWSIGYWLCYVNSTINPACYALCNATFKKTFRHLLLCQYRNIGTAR
Summary of the method: as §1

[1] = compound nos. 1-454, 100% efficacy is the maximum response obtained with the Carbachol control
[2] = compound nos. 1-454, M1-CHO cells, calcium mobilization
[3] = compound nos. 1-454, M4-CHO cells, calcium mobilization
[4] = compound nos. 455-509, 100% efficacy is the maximum response obtained with the Carbachol control

## CC(=O)N1CC2(CCN(C3CCC(C(C)C)CC3)CC2)c2cc(F)ccc21 (centres unmarked) [compound 226]
M1 muscarinic receptor; [1]
  Emax: < 65%
M1 muscarinic receptor; [2]
  M1 Activity: + (activity was measured to be greater than or equal to 3.0 μM)
M4 muscarinic receptor; [1]
  Emax: < 55%
M4 muscarinic receptor; [3]
  M4 Activity: + (activity was measured to be greater than or equal to 4.0 μM)

## O=C(C1CC1)N1CC2(CCN(C3CC4CCC(C3)N4C(=O)O[C@@H]3CCOC3)CC2)c2cc(F)ccc21 (some centres unmarked) [compound 87]
M1 muscarinic receptor; [1]
  Emax: 65 to 85%
M1 muscarinic receptor; [2]
  M1 Activity: +++ (activity was measured to be less than or equal to 0.7 μM)
M4 muscarinic receptor; [1]
  Emax: < 55%
M4 muscarinic receptor; [3]
  M4 Activity: + (activity was measured to be greater than or equal to 4.0 μM)

## CCc1cncc(N2CCC(N3CCC4(CC3)CN(C(C)=O)c3ccccc34)CC2)n1 [compound 485]
M1 muscarinic receptor; [4]
  Emax: > 100%
M1 muscarinic receptor; compounds 455-509
  M1 Activity: +++ (activity was measured to be less than or equal to 2.0 μM)
M4 muscarinic receptor; [4]
  Emax: 25 to 100%
M4 muscarinic receptor; compounds 455-509
  M4 Activity: ++ (activity was measured to be between 2.0 μM and 5.0 μM)

## CS(=O)(=O)N1CC2(CCN(C3CC4CCC(C3)N4C(=O)O[C@H]3CCOC3)CC2)c2cc(F)ccc21 (some centres unmarked) [compound 388]
M1 muscarinic receptor; compound nos. 1-454
  M1 Activity: +++ (activity was measured to be less than or equal to 0.7 μM)
M1 muscarinic receptor; [1]
  Emax: 65 to 85%
M4 muscarinic receptor; compound nos. 1-454
  M4 Activity: + (activity was measured to be greater than or equal to 4.0 μM)
M4 muscarinic receptor; [1]
  Emax: < 55%

## O=C1Nc2ccccc2C12CCN(C1CC3CCC1C3)CC2 (centres unmarked) [compound 259]
M1 muscarinic receptor; [1]
  Emax: 65 to 85%
M1 muscarinic receptor; [2]
  M1 Activity: + (activity was measured to be greater than or equal to 3.0 μM)
M4 muscarinic receptor; [1]
  Emax: < 55%
M4 muscarinic receptor; [3]
  M4 Activity: + (activity was measured to be greater than or equal to 4.0 μM)

## CC(=O)N1CCC2(CCN(C3CCN(c4nc(C)cs4)CC3)CC2)c2ccccc21 [compound 483]
M1 muscarinic receptor; [4]
  Emax: 25 to 100%
M1 muscarinic receptor; compounds 455-509
  M1 Activity: ++ (activity was measured to be between 2.0 μM and 5.0 μM)
M4 muscarinic receptor; [4]
  Emax: 25 to 100%
M4 muscarinic receptor; compounds 455-509
  M4 Activity: ++ (activity was measured to be between 2.0 μM and 5.0 μM)

## CCOC(=O)N1CCC(N2CCC3(CC2)CN(C(C)=O)c2ccc(-c4ccc(C(C)=O)cc4)cc23)CC1 [compound 221]
M1 muscarinic receptor; [1]
  Emax: 65 to 85%
M1 muscarinic receptor; [2]
  M1 Activity: ++ (activity was measured to be between 0.7 μM and 3.0 μM)
M4 muscarinic receptor; [1]
  Emax: < 55%
M4 muscarinic receptor; [3]
  M4 Activity: + (activity was measured to be greater than or equal to 4.0 μM)

## CN(C)C(=O)N1C2CCC1CC(N1CCC3(CC1)COc1ccc(F)cc13)C2 (centres unmarked) [compound 203]
M1 muscarinic receptor; [1]
  Emax: 65 to 85%
M1 muscarinic receptor; [2]
  M1 Activity: +++ (activity was measured to be less than or equal to 0.7 μM)
M4 muscarinic receptor; [1]
  Emax: < 55%
M4 muscarinic receptor; [3]
  M4 Activity: ++ (activity was measured to be between 0.1 μM and 4.0 μM)

## CC(C)OC(=O)N1C2CCC1CC(N1CCC3(CC1)CN(C(=O)O[C@@H]1CCOC1)c1ccc(F)cc13)C2 (some centres unmarked) [compound 402]
M1 muscarinic receptor; compound nos. 1-454
  M1 Activity: ++ (activity was measured to be between 0.7 μM and 3.0 μM)
M1 muscarinic receptor; [1]
  M1 Efficacy: ++ (efficacy was calculated to be between 85% and 65%)
M4 muscarinic receptor; compound nos. 1-454
  M4 Activity: + (activity was measured to be greater than or equal to 4.0 μM)
M4 muscarinic receptor; [1]
  M4 Efficacy: + (efficacy was calculated to be 55% or less)

## CC#CCOC(=O)N1CC2(CCN(C3CCN(C(=O)OCC)CC3)CC2)c2cc(F)ccc21 [compound 346]
M1 muscarinic receptor; [1]
  Emax: < 65%
M1 muscarinic receptor; [2]
  M1 Activity: +++ (activity was measured to be less than or equal to 0.7 μM)
M4 muscarinic receptor; [1]
  Emax: < 55%
M4 muscarinic receptor; [3]
  M4 Activity: + (activity was measured to be greater than or equal to 4.0 μM)

## Fc1ccc2c(c1)C1(CCN([C@H]3C[C@@H]4CC[C@@H]3C4)CC1)CO2 [compound 204]
M1 muscarinic receptor; [1]
  Emax: 65 to 85%
M1 muscarinic receptor; [2]
  M1 Activity: +++ (activity was measured to be less than or equal to 0.7 μM)
M4 muscarinic receptor; [1]
  Emax: < 55%
M4 muscarinic receptor; [3]
  M4 Activity: + (activity was measured to be greater than or equal to 4.0 μM)

## c1ccc2c(c1)NCC21CCN(C2CCCCC2)CC1 [compound 375]
M1 muscarinic receptor; compound nos. 1-454
  M1 Activity: +++ (activity was measured to be less than or equal to 0.7 μM)
M1 muscarinic receptor; [1]
  Emax: > 85%
M4 muscarinic receptor; compound nos. 1-454
  M4 Activity: +++ (activity was measured to be less than or equal to 0.1 μM)
M4 muscarinic receptor; [1]
  Emax: 55 to 70%

## CCOC(=O)N1CCC(N2CCC3(CC2)CN(C(=O)c2cccc(F)c2)c2ccc(F)cc23)CC1 [compound 410]
M1 muscarinic receptor; compound nos. 1-454
  M1 Activity: ++ (activity was measured to be between 0.7 μM and 3.0 μM)
M1 muscarinic receptor; [1]
  Emax: < 65%
M4 muscarinic receptor; compound nos. 1-454
  M4 Activity: ++ (activity was measured to be between 0.1 μM and 4.0 μM)
M4 muscarinic receptor; [1]
  Emax: < 55%

## CC(=O)N1CC2(CCN(C3CCN(C(=O)OC4CCC4)CC3)CC2)c2cc(C)ccc21 [compound 151]
M1 muscarinic receptor; [1]
  Emax: > 85%
M1 muscarinic receptor; [2]
  M1 Activity: +++ (activity was measured to be less than or equal to 0.7 μM)
M4 muscarinic receptor; [1]
  Emax: > 70%
M4 muscarinic receptor; [3]
  M4 Activity: +++ (activity was measured to be less than or equal to 0.1 μM)

## CCOC(=O)N1CCC(CN2CCC3(CC2)CN(C(C)=O)c2ccc(F)cc23)CC1 [compound 60]
M1 muscarinic receptor; [1]
  Emax: 65 to 85%
M1 muscarinic receptor; [2]
  M1 Activity: ++ (activity was measured to be between 0.7 μM and 3.0 μM)
M4 muscarinic receptor; [1]
  Emax: 55 to 70%
M4 muscarinic receptor; [3]
  M4 Activity: + (activity was measured to be greater than or equal to 4.0 μM)

## CCOC(=O)N1CCC(CN2CCC3(CC2)CN(C(C)=O)c2ccc(C)cc23)CC1 [compound 46]
M1 muscarinic receptor; [1]
  Emax: > 85%
M1 muscarinic receptor; [2]
  M1 Activity: +++ (activity was measured to be less than or equal to 0.7 μM)
M4 muscarinic receptor; [1]
  Emax: 55 to 70%
M4 muscarinic receptor; [3]
  M4 Activity: +++ (activity was measured to be less than or equal to 0.1 μM)

## COCCOC(=O)N1CC2(CCN(C3CC4CCC(C3)N4C(=O)O[C@H]3CCOC3)CC2)c2cc(F)ccc21 (some centres unmarked) [compound 80]
M1 muscarinic receptor; [1]
  Emax: < 65%
M1 muscarinic receptor; [2]
  M1 Activity: ++ (activity was measured to be between 0.7 μM and 3.0 μM)
M4 muscarinic receptor; [1]
  Emax: < 55%
M4 muscarinic receptor; [3]
  M4 Activity: ++ (activity was measured to be between 0.1 μM and 4.0 μM)

## CC(=O)N(C)[C@H]1CC2(CCN(C[C@H]3C[C@H]4CC[C@H]3C4)CC2)c2ccccc21 [compound 339]
M1 muscarinic receptor; [1]
  Emax: < 65%
M1 muscarinic receptor; [2]
  M1 Activity: + (activity was measured to be greater than or equal to 3.0 μM)
M4 muscarinic receptor; [1]
  Emax: < 55%
M4 muscarinic receptor; [3]
  M4 Activity: + (activity was measured to be greater than or equal to 4.0 μM)

## CN(C)C(=O)N1CC2(CCN(CC3CCN(c4cnccn4)C3)CC2)c2cc(F)ccc21 (centres unmarked) [compound 448]
M1 muscarinic receptor; compound nos. 1-454
  M1 Activity: +++ (activity was measured to be less than or equal to 0.7 μM)
M1 muscarinic receptor; [1]
  Emax: > 85%
M4 muscarinic receptor; compound nos. 1-454
  M4 Activity: +++ (activity was measured to be less than or equal to 0.1 μM)
M4 muscarinic receptor; [1]
  Emax: 55 to 70%

## CCCOC(=O)N1CCC(CN2CCC3(CC2)CN(C(C)=O)c2ccc(F)cc23)CC1 [compound 98]
M1 muscarinic receptor; [1]
  Emax: 65 to 85%
M1 muscarinic receptor; [2]
  M1 Activity: +++ (activity was measured to be less than or equal to 0.7 μM)
M4 muscarinic receptor; [1]
  Emax: < 55%
M4 muscarinic receptor; [3]
  M4 Activity: ++ (activity was measured to be between 0.1 μM and 4.0 μM)
